From US20230167068A1, “BENZOPYRAZOLE COMPOUND” (MEDSHINE DISCOVERY INC., priority 2019, published 2023)
pEC50, pIC50: −log10 of the molar value. Where two headings read alike, the source gives them in different places.

Assays:
CYP3A4 = molecular target: T1, CYP3A4 (Homo sapiens, UniProt P08684); experiment: Human liver microsomal CYP repression experiment; assay type: in vitro ADME; details: for repression on CYP3A4 (in words): conclusion on Table 3; for pIC50: mixed human liver microsomes, 5-in-1 probe substrate
T1 construct: incubation system containing human liver microsomes, probe substrates, and co-factors; tissue Corning Inc. or other suppliers; host or cells: mixed (pooled) human liver microsomes
Protocol: The purpose of the research project was to evaluate the repression of the test sample on human liver microsomal cytochrome P450 isoenzyme (CYP3A4) using a 5-in-1 probe substrate of CYP isoenzyme.
Mixed human liver microsomes (HLM) were purchased from Corning Inc. (Steuben, New York, USA) or other suppliers and stored at temperatures below -70° C. before use.
The diluted series concentration of the test sample was added to the incubation system containing human liver microsomes, probe substrates, and co-factors of the circulating system, and the control without the test sample but with solvent was used as the enzyme activity control (100%). The concentration of metabolites produced by the probe substrate in the sample was determined by liquid chromatography-tandem mass spectrometry (LC-MS/MS). Non-linear regression analysis of the mean percent activity of the test sample versus concentration was performed using SigmaPlot (V. 11). The IC50 values were calculated by a three- or four-parameter inverse logarithmic equation.

[1] = tested on: human peripheral blood mononuclear cells TNF-α; experiment: Repression of TNF-α in human peripheral blood mononuclear cells (LPS, ELISA); assay type: cell-based; details: PBMC, 3-fold diluted; for pIC50: read-out: hPBMC IC50; for Emax: maximum effect value
Protocol: Experimental purpose: To express the anti-inflammatory activity of the test compound at the cellular level according to the level of TNF-α in human peripheral blood mononuclear cells (hPBMC).
• [0488] 1) The frozen cells were quickly thawed by continuous stirring in a 37° C. water bath. • [0489] 2) 25 mL of fresh pre-heated thawed culture medium was added to a 50 mL centrifuge tube. Then the cells were added gently, drop by drop. • [0490] 3) Cells were centrifuged at 2000 rpm for 10 min (ascending speed: 9, descending speed: 1). • [0491] 4) The supernatant was discarded and the cell particles were resuspended in 25 mL of freshly pre-heated RPMI 1640 culture medium.
• [0493] 5) After thawing and resuscitating the suspended cells, the number of cells was counted and the total number of cells required for the experiment was calculated. • [0494] 6) The cell suspension was diluted with an appropriate volume of cell culture medium. • [0495] 7) The cell suspension was poured into a sterile disposable container. • [0496] 8) 100,000 cells/(100 µL) of cell suspension was transferred to each well of a 96-well plate. • [0497] 9) The cell plates were placed in humidified air, 5% CO2 incubator, 37° C. for 2 hours.
[…] In the second step, the serum-free culture medium was diluted 125 times, and the concentration of DMSO was 0.8%. Then 16.8 µL of the compound diluted in culture medium was transferred to a 100 µL cell plate, and the concentration of DMSO was 0.114%.
After adding the compound, the cell plates were incubated in a 37° C. 5% CO2 incubator for 1 hour.
In the first step, LPS was diluted with ultrapure water to a storage concentration of 1 mg/mL. In the second step, the storage concentration of LPS was diluted to 1 µg/mL in serum-free culture medium. In the third step, serum-free culture medium was 1666.666-fold diluted. Then 16.8 µL of LPS that has been diluted with culture medium was transferred to a 116.8 µL cell plate. At this time, the final concentration of DMSO was 0.1%. After adding LPS, the cell plate was put into a 37° C., 5% CO2 incubator and incubated for 18 hours.
• [0505] 1. The TNF-α antibody was diluted to 1× in the coating solution, and then 100 µL per well was added to a 96-well high-binding performance plate, and the plate was sealed with a membrane and placed at 4° C. for 18 hours. • [0506] 2. 2000 mL of wash buffer was prepared to 1x for later use.
• [0508] 3. After the plate was coated overnight, the coating solution was poured out and washed 3 times with 300 µL of washing buffer per well. • [0509] 4. After the plate was washed, 200 µL of sealing buffer was added to each well, and the plate was sealed with membrane. Incubated for one hour in a 25° C. incubator. • [0510] 5. The cell plates incubated for 18 hours were placed in a centrifuge for centrifugation, temperature: 25° C., speed: 2000 rpm, time: 10 min, ascending speed: 9, descending speed: 1. After centrifugation, 100 µL of cell supernatant from each well was transferred to a 3599 cell plate, and then placed in a 4° C. refrigerator for later use. • [0511] 6. The cell supernatant was diluted 40 times with sealing buffer and placed in a 4° C. refrigerator for later use, and the standard was also placed in a 4° C. refrigerator for later use. • [0512] 7. After the sealing was completed, the sealing solution was poured out and washed three times with 300 µL of washing buffer per well. • [0513] 8. The diluted cell supernatant samples and standards were added to the ELISA plate, and the plate was sealed with membrane. Then incubated for 2 hours in a 25° C. incubator. • [0514] 9. The liquid in the plate was poured out and washed 5 times with 300 µL of washing buffer per well. • [0515] 10. Antibodies were prepared and 100 µL was added to each well and the plate was sealed with sealing membrane. Then incubated for one hour in a 25° C. incubator. • [0516] 11. The liquid in the plate was poured out and washed 7 times with 300 µL of washing buffer per well. • [0517] 12. […]

[2] = In vivo pharmacokinetic properties study in male SD rats; details: rat, plasma, iv 2 mg/kg
Protocol: Experimental purpose: The purpose of this study was to determine the pharmacokinetic parameters of compounds in male SD rats.
Experimental methods: In this project, two male SD rats were intravenously administered with a dose of 2 mg/kg and a concentration of 0.4 mg/mL. Plasma samples were collected at 0 h (before administration) and 0.0833, 0.25, 0.5, 1, 2, 4, 6, 8, 24 h after administration. Then the collected samples were analyzed by LC-MS/MS and the data were collected. The collected analytical data were used to calculate the relevant pharmacokinetic parameters using Phoenix WinNonlin 6.3 software.

[3] = tested on: MMTV promoter luciferase reporter in HeLa cell line (GR transcription activation); experiment: MMTV transcription activation activity, luciferase reporter gene screening system (MMTV_GR transcription activation experiment); assay type: cell-based; details: Homo sapiens
Text: The promoter of mouse mammary tumor virus (MMTV) contains specific binding sites for activating GRs (GREs). To determine the activity of the compounds, a reporter gene (luciferase) was inserted after the MMTV promoter, and this construct was expressed in a stable manner in the genome of the HeLa cell line. MMTV promoter was activated by the test compounds to induce the expression of luciferase, and its activity was detected by luminescence measurement.
• [0442] 1) All the culture media were carefully aspirated, the cell layer was rinsed gently with an appropriate amount of DPBS, and then aspirated. • [0443] 2) An appropriate amount of 0.05% Typsine EDTA was added and incubated in a CO2 incubator for 3-5 minutes to digest the cells. • [0444] 3) The cells were resuspended with an appropriate amount of cell culture medium. • [0445] 4) The amount of cells required was calculated, and the cell concentration was 4×10^3 cells/well. • [0446] 5) The cell suspension was diluted with appropriate cell culture medium. • [0447] 6) Cell suspension was dispensed into a disposable sterile loading slot. • [0448] 7) Inoculated 30 µL per well into a 384-well plate. • [0449] 8) The cell plate was placed in a 37° C. 5% CO2 incubator for 18-24 hours.
Compounds were diluted with DMSO to 1 mM, 0.25 mM, 0.0625 mM, 0.015625 mM, 0.0039 mM, 0.0009765 mM, 0.000244 mM, 0.000061 mM, 0.00001526 mM and 0.0000038125 mM, then diluted 25-fold with serum culture medium treated with activated carbon, and finally 4x concentration compound experimental plate was obtained, prepared before use.
The final DMSO experimental concentration was 0.1%.
MMTV_GR transcription activation activity experiment • [0458] 1) Inoculated cells: Fresh cells were inoculated into 384 white transparent bottom experimental plates at 4×10^3 cells/30 µL/well, and incubated at 37° C. 5% CO2 incubator for 24 hours. • [0459] 2) Compound preparation: The compound plate was prepared before the experiment, and the reference compound (dexamethasone) and the test compound of 4x concentration were prepared. Finally, the experimental plate of 4x concentration compound was obtained. • [0460] 3) Added compound: 10 µL of 4x compound was transferred with Bravo and added to cell plate. Incubated for 18 hours in a 37° C. 5% CO2 incubator. • [0461] 4) 30 µL of Bright-Glo fluorescent detection reagent was transferred to the cell plate. • [0462] 5) Centrifugal incubation for 2 minutes. • [0463] 6) The fluorescence value was measured with the Envision plate reader.
Positive control: 1000 nM dexamethasone (0.1% DMSO)
Negative control: 0.1% DMSO
Test compound: Maximum concentration of 1000 nM, 4-fold dilution, 10 wells in total, repeated.
Dexamethasone: Maximum concentration of 1000 nM, 4-fold dilution, 10 wells in total, repeated.
The graphing software GraphPad Prism5 was used to create the concentration curves of the tested compounds and calculate the IC50 values.

T1 sequence (P08684 whole entry): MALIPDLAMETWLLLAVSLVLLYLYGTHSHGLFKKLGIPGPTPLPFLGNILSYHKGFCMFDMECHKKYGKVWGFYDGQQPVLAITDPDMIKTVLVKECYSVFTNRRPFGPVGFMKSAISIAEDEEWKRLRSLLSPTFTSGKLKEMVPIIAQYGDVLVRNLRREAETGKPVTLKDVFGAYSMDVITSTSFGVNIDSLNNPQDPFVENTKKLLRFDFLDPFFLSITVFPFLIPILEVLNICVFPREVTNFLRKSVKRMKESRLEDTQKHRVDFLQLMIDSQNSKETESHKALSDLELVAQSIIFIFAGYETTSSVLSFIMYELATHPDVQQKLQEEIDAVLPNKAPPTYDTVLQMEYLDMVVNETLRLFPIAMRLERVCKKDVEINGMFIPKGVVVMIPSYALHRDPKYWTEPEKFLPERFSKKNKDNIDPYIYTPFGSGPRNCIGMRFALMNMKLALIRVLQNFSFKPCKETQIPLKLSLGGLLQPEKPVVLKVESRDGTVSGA

| pIC50 (CYP3A4) | pIC50 ([1]; absolute IC50, test Top concentration 500 nM, 8 concentration (**)) | clearance [2] [L/h/kg] | half-life ([2]; read-out: T½ (converted)) [h] | Vd ([2]; read-out: Vdss) [L/kg] | SMILES | repression on CYP3A4 (in words) (CYP3A4) | Emax ([1]; test Top concentration 500 nM, 8 concentration (**)) [%] | Emax ([3]; HeLa, maximum effect value, positive control 1000 nM dexamethasone, read-out: TA (MMTV transcription activation activity) Effect) [%] | pEC50 ([3]; absolute EC50, HeLa MMTV-luciferase cells, 18 h, max concentration 1000 nM, read-out: TA (MMTV transcription activation activity) EC50) | pIC50 ([1]; absolute IC50, test Top concentration 1000 nM, 8 concentration (*)) | Emax ([1]; test Top concentration 1000 nM, 8 concentration (*)) [%] |
| --- | --- | --- | --- | --- | --- | --- | --- | --- | --- | --- | --- |
| 4.80 | – | – | – | – | C[C@H](NC(=O)C(C)(F)F)[C@H](Oc1ccc2c(cnn2-c2cn(C)nn2)c1)c1ccccc1 [WX053] | significantly improve the repression of CYP3A4 | – | – | – | – | – |
| 5.53 | 7.24 | 0.255 | 1.99 | 0.56 | CC(C)[C@H](NC(=O)C(C)(F)F)[C@H](Oc1ccc2c(cnn2-c2ccc(=O)n(C)c2)c1)c1ccccc1 [AZD9567, reference compound] | moderate repression on CYP3A4 | 54.6 | – | – | – | – |
| – | – | – | – | – | C[C@H](NC(=O)C(C)(F)F)[C@H](Oc1ccc2c(cnn2-c2ccc3nncn3c2)c1)c1ccccc1 [WX022] | – | – | 101 | 8.80 | 8.62 | 90 |
